These results are taken from patent US8247394B2 (Cempra Pharmaceuticals Inc., priority 2010, dated 2012).

For orientation: MIC90 means an inhibitory concentration at the 90% level, which refers to growth in some studies and to a panel of isolates in others. Broadly, the MIC50 is the lowest concentration that inhibits either 50% of growth or 50% of the strains tested, depending on the study. By MIC is commonly meant the lowest concentration that inhibits growth of the organism. A high value points to a need for much substance.

Data set [1] deals with C. trachomatis. In words: In vitro susceptibility testing of C. trachomatis in cell culture using HEp-2 cells (MIC/MBC). The format is cell-based, Chlamydia trachomatis. The conditions noted are these: for MBC / MIC90 / MIC: Chlamydia trachomatis. The protocol: Chlamydia isolates: 10 isolates of C. trachomatis in order to determine the MIC90 and MBC90 for each antibiotic.
C. trachomatis: 10 isolates of C. trachomatis, including standard isolates from the ATCC (E-BOUR, F-IC-CAL3, C-HAR32, J-UW-36, L2434, D-UW-57kx, B-HAR-36) and recent clinical isolates N18 (cervical), N19 (cervical), 7015 (infant eye).
In vitro susceptibility testing: Susceptibility testing of C. trachomatis was performed in cell culture using HEp-2 cells grown in 96-well microtiter plates. Each well was inoculated with 0.1 ml of the test strain diluted to yield 10^3 to 10^4 IFU/per ml, centrifuged at 1,700×g for 1 hr and incubated at 35° C. for 1 hr. Wells were then aspirated and overlaid with 0.2 ml of medium containing 1 μg of cycloheximide per ml and serial two fold dilutions of the test drug. Duplicate plates were inoculated. After incubation at 35° C. for 48-72 hrs, cultures were fixed and stained for inclusions with fluorescein-conjugated antibody to the lipopolysaccharide genus antigen ([…]™, Kallestad Diagnostics, Chaska, Minn.). The minimal inhibitory concentration (MIC) was the lowest antibiotic concentration at which no inclusions are seen. The minimal bactericidal concentration (MBC) was determined by aspirating the antibiotic containing medium, washing wells twice with phosphate buffered saline and adding antibiotic-free medium. Cultures were frozen at −70° C., thawed, passed onto new cells, incubated for 72 hrs then fixed and stained as above. The MBC was the lowest antibiotic concentration that results in no inclusions after passage. All tests were run in triplicate.
Ten isolates of C. trachomatis including standard isolates from the ATCC (E-BOUR, F-IC-CAL3, C-HAR32, J-UW-36, L2434, D-UW-57kx, B-HAR-36) and recent clinical isolates N18 (cervical), N19 (cervical), 7015 (infant eye) were selected for study. Susceptibility testing was performed in cell culture using HEp-2 cells (Roblin et. al. Antimicrob. Agents Chemother. 42:194-196 (1998)) at State University of New York, Downstate Medical Center (Brooklyn, N.Y., USA).

The subject of data set [2] is N. gonorrhoeae. In words: Reference agar dilution susceptibility testing (CLSI M07-A8) of N. gonorrhoeae clinical isolates. Format: cell-based, Neisseria gonorrhoeae. To be noted: for % by category, R (resistant); resistance rate / % by category, S (susceptible): CLSI criteria, 35 strains. The method, then: Thirty-five clinical isolates of N. gonorrhoeae collected in the United States (USA), Asia and European medical centers since 2005 were tested using reference agar dilution methods per Clinical and Laboratory Standards Institute (CLSI) M07-A8 (Clinical and Laboratory Standards Institute. 2009. M07-A8, Methods for dilution antimicrobial susceptibility tests for bacteria that grow aerobically; approved standard—eighth edition. Wayne, Pa.: CLSI) and M100-S20 documents (Clinical and Laboratory Standards Institute. 2010. M100-S20, Performance standards for antimicrobial susceptibility testing, 20th informational supplement. Wayne, Pa.: CLSI). […] Quality control (QC) ranges and interpretive criteria for comparator compounds were as published by CLSI (Clinical and Laboratory Standards Institute. 2010. M100-S20, Performance standards for antimicrobial susceptibility testing, 20th informational supplement. Wayne, Pa.: CLSI).
A general note: In agar dilution, organisms are placed on agar that contains the substance at set levels.

For data set [3] the following is noted: blood; cited from earlier work.
Setting [4] is: number of isolates among 35 strains.
Setting [5] is: Neisseria gonorrhoeae, 35 N. gonorrhoeae strains, read-out: MIC50.
Setting [6] is: 10 strains of C. trachomatis, read-out: MBC90.

Values after ≈ are worked out from the molar mass of the structure shown. Where two headings read alike, the source gives them in different places. Some results are limits rather than exact numbers.

For the molecule `C[C@H]1c2cccc(O)c2C(=O)C2=C(O)[C@]3(O)C(=O)C(C(N)=O)=C(O)[C@@H](N(C)C)[C@@H]3[C@@H](O)[C@@H]21` [Doxycycline, doxycycline], in data set [1] (10 strains), the “MBC Range” value was 0.015 to 0.06 µg/mL, the “MIC 90%” value worked out at 0.06 µg/mL (≈ 0.135 µM) and the “MIC Range” value fell in the range of 0.015 to 0.06 µg/mL. In addition, in data set [1] (10 strains, read-out: MBC 90%), the MBC is 0.06 µg/mL (≈ 0.135 µM). The MIC90 in data set [1] (10 strains of C. trachomatis) was found to be 0.06 µg/mL (≈ 0.135 µM).
Molecule penicillin returned an MIC50 in data set [2] (35 N. gonorrhoeae strains) of 1 µg/mL. Besides, in data set [2], the “% by category, R (resistant); resistance rate” value (“% by category, R (resistant)” below) amounted to 45.7% and the “% by category, S (susceptible)” value is listed as 22.9%. In addition, in data set [2] (setting [4]), the “Occurrences at MIC 0.015 μg/ml” value was determined as 1, the “Occurrences at MIC 0.03 μg/ml” value is on record as 4, the “Occurrences at MIC 0.06 μg/ml” value was found to be 3 and the “Occurrences at MIC 0.25 μg/ml” value was 2. Further, in data set [2] (setting [4]), the “Occurrences at MIC 0.5 μg/ml” value was 4, the “Occurrences at MIC 1 μg/ml” value is 5, the “Occurrences at MIC 2 μg/ml” value was found to be 6 and the “Occurrences at MIC 4 μg/ml” value turned out to be 4. Further, in data set [2] (setting [4]), the “Occurrences at MIC >4 μg/ml” value came out at 6.
As for `CC[C@H]1OC(=O)[C@H](C)[C@@H](O[C@H]2C[C@@](C)(OC)[C@@H](O)[C@H](C)O2)[C@H](C)[C@@H](O[C@@H]2O[C@H](C)C[C@H](N(C)C)[C@H]2O)[C@](C)(OC)C[C@@H](C)C(=O)[C@H](C)[C@@H](O)[C@]1(C)O` [Clarithromycin, clarithromycin], in data set [1] (10 strains), the “MBC Range” value was 0.015 to 0.12 µg/mL, the “MIC 90%” value is 0.06 µg/mL (≈ 0.0802 µM) and the “MIC Range” value was 0.015 to 0.12 µg/mL. Further, the MBC in data set [1] (10 strains, read-out: MBC 90%) is 0.06 µg/mL (≈ 0.0802 µM). The MIC90 in data set [1] (10 strains of C. trachomatis) is 0.06 µg/mL (≈ 0.0802 µM).
`CO/N=C(\C(=O)N[C@@H]1C(=O)N2C(C(=O)O)=C(CSc3nc(=O)c(=O)[nH]n3C)CS[C@H]12)c1csc(N)n1` [Ceftriaxone, ceftriaxone]: in data set [2], the “% by category, R (resistant)” value is given as 0.0% and the “% by category, S (susceptible)” value was 100.0/— %. In addition, in data set [2] (setting [4]), the “Occurrences at MIC 0.015 μg/ml” value came out at 6, the “Occurrences at MIC 0.03 μg/ml” value came out at 6, the “Occurrences at MIC 0.06 μg/ml” value came to 3 and the “Occurrences at MIC 0.12 μg/ml” value is 2. In addition, in data set [2] (setting [4]), the “Occurrences at MIC ≦0.008 μg/ml” value is 18.
As for `CC[C@H]1OC(=O)[C@H](C)[C@@H](O[C@H]2C[C@@](C)(OC)[C@@H](O)[C@H](C)O2)[C@H](C)[C@@H](O[C@@H]2O[C@H](C)C[C@H](N(C)C)[C@H]2O)[C@](C)(O)C[C@@H](C)CN(C)[C@H](C)[C@@H](O)[C@]1(C)O` [Azithromycin, azithromycin], in data set [1] (10 strains), the “MBC Range” value was 0.015 to 0.12 µg/mL, the “MIC 90%” value amounted to 0.12 µg/mL (≈ 0.16 µM) and the “MIC Range” value lay in the range of 0.015 to 0.12 µg/mL. Further, in data set [1] (10 strains, read-out: MBC 90%), the MBC stood at 0.12 µg/mL (≈ 0.16 µM). Also, in data set [1] (10 strains of C. trachomatis), the MIC90 stood at 0.12 µg/mL (≈ 0.16 µM). In data set [2], the “% by category, R (resistant)” value is 0.0%. In addition, the MIC50 in data set [2] (setting [5]) came out at 0.25 µg/mL (≈ 0.334 µM). For the same molecule, in data set [2] (setting [4]), the “Occurrences at MIC 0.06 μg/ml” value is recorded as 1, the “Occurrences at MIC 0.12 μg/ml” value came out at 15, the “Occurrences at MIC 0.25 μg/ml” value came out at 12 and the “Occurrences at MIC 0.5 μg/ml” value is on record as 5. Further, in data set [2] (setting [4]), the “Occurrences at MIC 1 μg/ml” value is reported as 1 and the “Occurrences at MIC 2 μg/ml” value came to 1.
As to `CC[C@H]1OC(=O)[C@H](C)C(=O)[C@H](C)[C@@H](O[C@@H]2O[C@H](C)C[C@H](N(C)C)[C@H]2O)[C@](C)(OC)C[C@@H](C)C(=O)[C@H](C)[C@H]2N(CCCCn3cnc(-c4cccnc4)c3)C(=O)O[C@]12C` [Telithromycin, telithromycin], in data set [1] (10 strains), the “MBC Range” value is 0.015 to 0.25 µg/mL, the “MIC 90%” value worked out at 0.06 µg/mL (≈ 0.0739 µM) and the “MIC Range” value was in the range of 0.015 to 0.25 µg/mL. In data set [1] (10 strains, read-out: MBC 90%), the MBC worked out at 0.06 µg/mL (≈ 0.0739 µM). The molecule also registered an MIC90 in data set [1] (10 strains of C. trachomatis) of 0.06 µg/mL (≈ 0.0739 µM).
Regarding `CN(C)[C@@H]1C(O)=C(C(N)=O)C(=O)[C@@]2(O)C(O)=C3C(=O)c4c(O)cccc4[C@@](C)(O)[C@H]3C[C@@H]12` [Tetracycline, tetracycline], in data set [2], the “% by category, R (resistant)” value was found to be 34.3% and the “% by category, S (susceptible)” value amounted to 22.9%. Also, the MIC50 in data set [2] (setting [5]) amounted to 1 µg/mL (≈ 2.25 µM). Also, in data set [2] (setting [4]), the “Occurrences at MIC 0.12 μg/ml” value amounted to 6, the “Occurrences at MIC 0.25 μg/ml” value turned out to be 2, the “Occurrences at MIC 0.5 μg/ml” value is 8 and the “Occurrences at MIC 1 μg/ml” value worked out at 7. In data set [2] (setting [4]), the “Occurrences at MIC 2 μg/ml” value worked out at 7, the “Occurrences at MIC 4 μg/ml” value amounted to 1 and the “Occurrences at MIC >4 μg/ml” value worked out at 4.
With `CC(=O)O[C@H]1C[C@@]2(C)[C@@H](C[C@@H](O)[C@H]3[C@@]4(C)CC[C@@H](O)[C@@H](C)[C@@H]4CC[C@@]32C)/C1=C(\CCC=C(C)C)C(=O)O` [Fusidic acid], in data set [1] (10 strains), the “MBC Range” value lay in the range of 0.12 to 0.5 µg/mL, the “MIC 90%” value turned out to be 0.5 µg/mL (≈ 0.968 µM), the “MIC Range” value lay within 0.12 to 0.5 µg/mL and the MIC range is 0.12 to 0.5 µg/mL. Further, the MBC in data set [1] (10 strains, read-out: MBC 90%) is 0.5 µg/mL (≈ 0.968 µM). The same molecule gave an MIC90 in data set [1] (10 strains of C. trachomatis) of 0.5 µg/mL (≈ 0.968 µM). In addition, the MBC in data set [1] (setting [6]) was determined as 0.5 µg/mL (≈ 0.968 µM). In addition, in data set [2], the “Occurrences at MIC 0.25 μg/ml” value is listed as 12, the “Occurrences at MIC 0.5 μg/ml” value was found to be 17, the “Occurrences at MIC 1 μg/ml” value is 5 and the “Occurrences at MIC 2 μg/ml” value came out at 1. Besides, the MIC90 in data set [2] (Neisseria gonorrhoeae, 35 N. gonorrhoeae strains) was 1 µg/mL (≈ 1.94 µM). The MIC50 in data set [2] (setting [5]) was determined as 0.5 µg/mL (≈ 0.968 µM). In addition, the “Concentration at which active against all strains tested” value in data set [2] (all N. gonorrhoeae strains tested) was ≤ 2 µg/mL. Moreover, the protein binding in data set [3] is 95-97%.
In the case of `CC(=O)O[C@H]1C[C@@]2(C)[C@@H](C[C@@H](O)[C@H]3[C@@]4(C)CC[C@@H](O)[C@@H](C)[C@@H]4CC[C@@]32C)/C1=C(\CCC=C(C)C)C(=O)[O-].[Na+]` [CEM 102, Sodium fusidate], the MIC in data set [1] (strain 7015), in data set [1] (strain Ct D), in data set [1] (strain Ct E), in data set [1] (strain Ct F), in data set [1] (strain Ct H) and in data set [1] (strain Ct I) was 0.5 µg/mL throughout. For the same molecule, the MIC in data set [1] (strain Ct J) was 0.5 µg/mL; in data set [1] (strain L2) it was 0.25 µg/mL; in data set [1] (strain N18), 0.25 µg/mL; in data set [1] (strain N19) it was 0.125 µg/mL. The MBC turned out to be 0.5 µg/mL in data set [1] (strain 7015, read-out: MBC); 0.5 µg/mL in data set [1] (strain Ct D, read-out: MBC); 0.5 µg/mL in data set [1] (strain Ct E, read-out: MBC); 0.5 µg/mL in data set [1] (strain Ct F, read-out: MBC); 0.5 µg/mL in data set [1] (strain Ct H, read-out: MBC); 0.5 µg/mL in data set [1] (strain Ct I, read-out: MBC). Besides, the MBC in data set [1] (strain Ct J, read-out: MBC) was found to be 0.5 µg/mL; in data set [1] (strain L2, read-out: MBC), 0.25 µg/mL; in data set [1] (strain N18, read-out: MBC) it was 0.25 µg/mL; in data set [1] (strain N19, read-out: MBC), 0.125 µg/mL; in data set [1] (setting [6]) it was 0.5 µg/mL. The same molecule showed an MIC90 in data set [1] (10 strains of C. trachomatis) of 0.5 µg/mL.
